Assay results as given in PubChem BioAssay (NCI).
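Five compound concentrations were applied to cells in 96-well plates for 48 hours; endpoints were derived by simple linear interpolation of the resulting dose-response curve. GI50: concentration for 50% inhibition of growth. Definition used: TGI = concentration required for complete inhibition of growth.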

How the values were obtained:
Experiment in all cases: NCI anticancer screen, dose series, 48 h
[1] = test system: BT-549 breast
[2] = test system: OVCAR-3 ovarian
[3] = test system: OVCAR-4 ovarian
[4] = test system: LOX IMVI melanoma
[5] = test system: MDA-MB-468 breast
[6] = test system: PC-3 prostate
[7] = test system: SF-268 CNS
[8] = test system: IGROV1 ovarian
[9] = test system: HOP-62 NSCLC
[10] = test system: UACC-62 melanoma
[11] = test system: K-562 leukemia
[12] = test system: HS 578T breast
[13] = test system: U251 CNS
[14] = test system: SF-295 CNS
[15] = test system: TK-10 renal
[16] = test system: HCT-15 colon
[17] = test system: OVCAR-8 ovarian
[18] = test system: A549 NSCLC
[19] = test system: MCF7 breast
[20] = test system: MDA-MB-435
[21] = test system: HL-60(TB) leukemia
[22] = test system: T-47D breast
[23] = test system: NCI-H226 lung
[24] = test system: MOLT-4 leukemia
[25] = test system: NCI-H23 lung
[26] = test system: SN12C renal
[27] = test system: SR leukemia
[28] = test system: KM12 colon
[29] = test system: A498 renal
[30] = test system: SNB-19 CNS
[31] = test system: HOP-92 NSCLC
[32] = test system: OVCAR-5 ovarian
[33] = test system: UO-31 renal
[34] = test system: CAKI-1 renal
[35] = test system: M14 melanoma
[36] = test system: SW-620 colon
[37] = test system: SK-MEL-5 melanoma
[38] = test system: HCT-116 colon
[39] = test system: EKVX NSCLC
[40] = test system: DU-145 prostate
[41] = test system: SK-MEL-2 melanoma
[42] = test system: CCRF-CEM leukemia
[43] = test system: SNB-75 CNS
[44] = test system: NCI/ADR-RES ovarian
[45] = test system: HCC-2998 colon
[46] = test system: RXF 393 renal
[47] = test system: MDA-MB-231 breast
[48] = test system: MALME-3M melanoma
[49] = test system: COLO 205 colon
[50] = test system: HT29 colon
[51] = test system: 786-0 renal
[52] = test system: UACC-257 melanoma
[53] = test system: ACHN renal
[54] = test system: NCI-H522 lung
[55] = test system: RPMI-8226 leukemia
[56] = test system: SK-OV-3 ovarian
[57] = test system: SK-MEL-28 melanoma
[58] = test system: SF-539 CNS
[59] = test system: NCI-H460 lung

In the case of `O=C(CNc1nc(-c2ccccc2)cs1)Nc1ccc(Cl)cc1`, the GI50 [1] is reported as 216 nM, the TGI [1] is reported as 643 nM and the GI50 [2] is reported as 552 nM. For the same compound, the TGI [2] was 1310 nM, the GI50 [3] was 1340 nM and the TGI [3] was 3170 nM. For the same compound, the GI50 [4] was 167 nM, the TGI [4] was 616 nM and the GI50 [5] was 394 nM. The TGI [5] was 877 nM, the GI50 [6] was 519 nM and the TGI [6] was 2610 nM. For the same compound, the GI50 [7] was 1880 nM, the TGI [7] was 10100 nM and the GI50 [8] was 554 nM. For the same compound, the TGI [8] was 1750 nM, the GI50 [9] was 1350 nM and the TGI [9] was 2730 nM. It also gave a GI50 [10] of 496 nM, a TGI [10] of 1640 nM and a GI50 [11] of 224 nM. It also gave a TGI [11] greater than 100000 nM, a GI50 [12] of 1270 nM and a TGI [12] greater than 91300 nM. It also gave a GI50 [13] of 339 nM, a TGI [13] of 813 nM and a GI50 [14] of 708 nM. It also gave a TGI [14] of 2150 nM, a GI50 [15] of 1070 nM and a TGI [15] of 2520 nM. The GI50 [16] was 315 nM, the TGI [16] was 800 nM and the GI50 [17] was 989 nM. It also gave a GI50 [18] of 1070 nM, a TGI [18] of 2480 nM and a GI50 [19] of 323 nM. It also gave a TGI [19] of 860 nM, a GI50 [20] of 559 nM and a TGI [20] of 2100 nM. It also gave a GI50 [21] of 304 nM, a TGI [21] of 2260 nM and a GI50 [22] of 337 nM. It also gave a TGI [22] of 2440 nM, a GI50 [23] of 651 nM and a TGI [23] of 2940 nM. The GI50 [24] was 364 nM, the GI50 [25] was 407 nM and the TGI [25] was 1020 nM. It also gave a GI50 [26] of 465 nM, a TGI [26] of 1230 nM and a GI50 [27] of 25500 nM. It also gave a TGI [27] greater than 100000 nM, a GI50 [28] of 828 nM and a TGI [28] of 2530 nM. It also gave a GI50 [29] of 2150 nM, a TGI [29] of 5020 nM and a GI50 [30] of 777 nM. For the same compound, the TGI [30] was 2130 nM, the GI50 [31] was 461 nM and the TGI [31] was 2130 nM. The GI50 [32] was 1030 nM, the TGI [32] was 2410 nM and the GI50 [33] was 654 nM. For the same compound, the TGI [33] was 2030 nM, the GI50 [34] was 466 nM and the TGI [34] was 1890 nM. The GI50 [35] was 341 nM, the TGI [35] was 1680 nM and the GI50 [36] was 683 nM. It also gave a TGI [36] of 1910 nM, a GI50 [37] of 440 nM and a TGI [37] of 851 nM. For the same compound, the GI50 [38] was 196 nM, the TGI [38] was 796 nM and the GI50 [39] was 530 nM. For the same compound, the TGI [39] was 1200 nM, the GI50 [40] was 1540 nM and the TGI [40] was 2920 nM. For the same compound, the GI50 [41] was 646 nM, the TGI [41] was 2070 nM and the GI50 [42] was 243 nM. For the same compound, the TGI [42] was greater than 21500 nM, the GI50 [43] was 628 nM and the TGI [43] was 5900 nM. It also gave a GI50 [44] of 213 nM, a TGI [44] of 533 nM and a GI50 [45] of 835 nM. The TGI [45] was 2180 nM, the GI50 [46] was 514 nM and the TGI [46] was 1170 nM. For the same compound, the GI50 [47] was 480 nM, the TGI [47] was 1390 nM and the GI50 [48] was 507 nM. It also gave a TGI [48] of 1200 nM, a GI50 [49] of 1580 nM and a TGI [49] of 3230 nM. The GI50 [50] was 348 nM, the TGI [50] was 1320 nM and the GI50 [51] was 217 nM. The TGI [51] was 469 nM, the GI50 [52] was 1060 nM and the TGI [52] was 3290 nM. It also gave a GI50 [53] of 385 nM, a TGI [53] of 846 nM and a GI50 [54] of 152 nM. For the same compound, the TGI [54] was 305 nM, the GI50 [55] was 331 nM and the TGI [55] was 2720 nM. It also gave a GI50 [56] of 1390 nM, a TGI [56] of 4540 nM and a GI50 [57] of 1080 nM. For the same compound, the TGI [57] was 2430 nM, the GI50 [58] was 518 nM and the TGI [58] was 971 nM. The GI50 [59] was 936 nM and the TGI [59] was 3120 nM.

Compound `O=C(Cc1ccc2c(c1)CN(C1CCC(=O)NC1=O)C2=O)NCCc1ccccc1` (configuration not stated) has a GI50 [1] of 19.2 nM, a TGI [1] of 75.5 nM and a GI50 [2] of 2240 nM. The TGI [2] was greater than 100000 nM, the GI50 [3] was 436 nM and the TGI [3] was greater than 70900 nM. For the same compound, the GI50 [4] was greater than 100000 nM, the TGI [4] was greater than 100000 nM and the GI50 [5] was less than 10 nM. For the same compound, the TGI [5] was 16.8 nM, the GI50 [6] was 36.7 nM and the TGI [6] was greater than 100000 nM. The GI50 [7] was 510 nM, the TGI [7] was greater than 100000 nM and the GI50 [8] was 33.6 nM. It also gave a TGI [8] of 1080 nM, a GI50 [9] of 30.9 nM and a TGI [9] of 1320 nM. The GI50 [10] was 2460 nM, the TGI [10] was greater than 100000 nM and the GI50 [11] was 581 nM. The TGI [11] was greater than 100000 nM, the GI50 [12] was 38.5 nM and the TGI [12] was 3100 nM. The GI50 [13] was greater than 25100 nM, the TGI [13] was greater than 100000 nM and the GI50 [14] was 530 nM. For the same compound, the TGI [14] was greater than 100000 nM, the GI50 [15] was 727 nM and the TGI [15] was greater than 100000 nM. For the same compound, the GI50 [16] was 166 nM, the TGI [16] was 4750 nM and the GI50 [17] was 32.3 nM. The TGI [17] was greater than 21400 nM, the GI50 [18] was 663 nM and the TGI [18] was greater than 100000 nM. It also gave a GI50 [19] of 200 nM, a TGI [19] greater than 100000 nM and a GI50 [20] of 551 nM. For the same compound, the TGI [20] was greater than 100000 nM, the GI50 [21] was less than 10 nM and the TGI [21] was 2190 nM. The GI50 [22] was 21.8 nM, the TGI [22] was 414 nM and the GI50 [23] was 68.5 nM. The TGI [23] was 1410 nM, the GI50 [24] was less than 10 nM and the TGI [24] was greater than 100000 nM. For the same compound, the GI50 [25] was greater than 60800 nM, the TGI [25] was greater than 100000 nM and the GI50 [26] was 188 nM. It also gave a TGI [26] greater than 30900 nM, a GI50 [27] greater than 76500 nM and a TGI [27] greater than 100000 nM. The GI50 [28] was 276 nM, the TGI [28] was greater than 100000 nM and the GI50 [29] was 297 nM. For the same compound, the TGI [29] was 7760 nM, the GI50 [30] was 76.7 nM and the TGI [30] was greater than 28700 nM. It also gave a GI50 [31] of 13.4 nM, a TGI [31] of 146 nM and a GI50 [32] of 145 nM. For the same compound, the TGI [32] was 30500 nM, the GI50 [33] was 226 nM and the TGI [33] was 6270 nM. It also gave a GI50 [34] of 276 nM, a TGI [34] greater than 100000 nM and a GI50 [35] of 114 nM. It also gave a TGI [35] greater than 56400 nM, a GI50 [36] of 39.1 nM and a TGI [36] greater than 100000 nM. It also gave a GI50 [37] of 156 nM, a TGI [37] of 991 nM and a GI50 [38] of 67900 nM. The TGI [38] was greater than 100000 nM, the TGI [39] was greater than 100000 nM and the GI50 [40] was 20800 nM. The TGI [40] was greater than 100000 nM, the GI50 [41] was 225 nM and the TGI [41] was 1820 nM. For the same compound, the GI50 [42] was less than 10 nM, the GI50 [43] was 42 nM and the TGI [43] was 2200 nM. The GI50 [44] was 5940 nM, the TGI [44] was greater than 100000 nM and the GI50 [45] was 45.1 nM. It also gave a TGI [45] of 1320 nM, a GI50 [46] of 402 nM and a TGI [46] greater than 24100 nM. The GI50 [47] was less than 10 nM, the TGI [47] was 10.2 nM and the GI50 [48] was 13.5 nM. It also gave a TGI [48] of 74.6 nM, a GI50 [49] of 43.8 nM and a TGI [49] of 1280 nM. It also gave a GI50 [50] of 530 nM, a TGI [50] greater than 100000 nM and a GI50 [51] of 124 nM. The TGI [51] was greater than 100000 nM, the GI50 [52] was greater than 100000 nM and the TGI [52] was greater than 100000 nM. For the same compound, the GI50 [53] was 5320 nM, the TGI [53] was greater than 100000 nM and the GI50 [54] was greater than 20200 nM. For the same compound, the TGI [54] was greater than 100000 nM, the GI50 [55] was 441 nM and the TGI [55] was greater than 100000 nM. For the same compound, the GI50 [56] was 484 nM, the TGI [56] was greater than 85700 nM and the GI50 [57] was 589 nM. For the same compound, the TGI [57] was greater than 100000 nM, the GI50 [58] was 564 nM and the TGI [58] was greater than 100000 nM. It also gave a GI50 [59] greater than 100000 nM and a TGI [59] greater than 100000 nM.
